Where two headings read alike, the source gives them in different places.
Assays:
[1] = Pharmacokinetic study in mice, serum and brain (LC-MS/MS); assay type: in vivo, mouse; details: for k el: non-compartmental analysis, read-out: λz (converted)
Method: The amount of the target compound in the serum and brain was determined by an LC-MS/MS system. […] The compound also very quickly penetrated to the murine brain and reached the maximum concentration in this organ at 15 min. However, the brain concentrations were lower than those in the serum. The compound was slowly eliminated from the body as its concentrations were still measurable up to 8 h. The terminal slope reflecting the elimination rate from the brain was similar to that observed in the serum. Male CD-1 mice weighting 28–33 g housed in conditions of the constant temperature with a 12:12 h light–dark cycle with free access to food and water were used in this study. The investigated compound was dissolved in sterile water for injection (Polpharma, Poland) and administered i.p. at a dose of 40 mg/kg. The mice were sacrificed by decapitation under isoflurane anesthesia. Blood samples were collected at 5, 15, 30, 60, 120, 240, and 480 min after dosing and brains were harvested at the same time points. Blood was allowed to clot at room temperature for 20 min and serum was separated by centrifugation at 3000 rpm for 10 min (Eppendorf MiniSpin centrifuge, Germany). The samples were stored at −80 °C until analysis. All animal procedures were approved by the First Ethical Committee on Animal Experimentation in Krakow, Poland (no. 270/2019). Concentrations of compound 14 in mouse brains and serum were measured by liquid chromatography tandem mass spectrometry (LC-MS/MS) method using SCIEX QTRAP 4500 triple quadrupole mass spectrometer coupled to Excion LC AC HPLC system (both from Danaher Corporation, Washington, DC, USA). Chromatographic separation was carried out on the Hypersil GoldTM C18 analytical column (2.1 × 50 mm, 3 µm, Thermo Scientific, USA) with the oven temperature set at 40 °C. […] The remaining time of elution was set at 95% B. The whole HPLC operation lasted 10 min. Electrospray ionization (ESI) in the positive ion mode was used for ion production. The tandem mass spectrometer was operated at unit resolution in the selected reaction monitoring mode (SRM), monitoring the transition of the protonated molecular ions m/z 489 to 132 (CE = 65 eV) and m/z 489 to 231 (CE = 29 eV) for compound 14 (first pair was used as a quantifier and the second for the identity verification qualifier) and m/z 436 to 235 (CE = 42 eV) for an internal standard (valsartan). The mass spectrometric conditions were optimized by continuous infusion of the standard solution at the rate of 7 μL/min using a Harvard infusion pump. The ion source temperature was maintained at 450 °C and the ion spray voltage was set at 5500 V. The curtain gas (CUR) was set at 40 psi and the collision gas (CAD) at medium. Data acquisition and processing were accomplished using the Analyst version 1.7 software. The calibration curves were constructed by plotting the ratio of the peak area of the studied compound to internal standard (IS) versus drug concentration and generated by weighted (1/x·x) linear regression analysis. The validated quantitation ranges for this method were within the expected concentration ranges, namely, from 0.1 to 20 µg/mL of serum and from 0.05 to 10 µg/g of brain tissue with accuracy from 93.73 to 104.29% and from 88.33 to 107% for serum and brain, respectively. No significant matrix effect was observed and there were no stability-related problems during the routine analysis of the samples. The brains were homogenized in distilled water at the ratio of 1:4 (w/v) with a tissue homogenizer LabGEN 125 (Cole-Parmer, Vernon Hills, IL, USA). […] Serum supernatant was additionally diluted 10 times with the deproteinization solution. Then, brain or serum supernatants were transferred into the autosampler vials. The autosampler temperature was maintained at 15 °C and a sample volume of 2 μL was injected into the LC-MS/MS system.

CYP2D6 = biological target: T1, CYP2D6 (Homo sapiens, UniProt P10635); assay: CYP2D6 P450-Glo luminescent assay; assay type: in vitro ADME; details: 1 and 10 µM
T1 construct: purchased Promega (Madison, WI, USA)

[2] = male, CD-1, mouse, ip, brain, mice, 40 mg/kg i.p.
[3] = male, CD-1, mouse, ip, serum, mice, 40 mg/kg i.p.

T1 sequence (P10635 whole entry): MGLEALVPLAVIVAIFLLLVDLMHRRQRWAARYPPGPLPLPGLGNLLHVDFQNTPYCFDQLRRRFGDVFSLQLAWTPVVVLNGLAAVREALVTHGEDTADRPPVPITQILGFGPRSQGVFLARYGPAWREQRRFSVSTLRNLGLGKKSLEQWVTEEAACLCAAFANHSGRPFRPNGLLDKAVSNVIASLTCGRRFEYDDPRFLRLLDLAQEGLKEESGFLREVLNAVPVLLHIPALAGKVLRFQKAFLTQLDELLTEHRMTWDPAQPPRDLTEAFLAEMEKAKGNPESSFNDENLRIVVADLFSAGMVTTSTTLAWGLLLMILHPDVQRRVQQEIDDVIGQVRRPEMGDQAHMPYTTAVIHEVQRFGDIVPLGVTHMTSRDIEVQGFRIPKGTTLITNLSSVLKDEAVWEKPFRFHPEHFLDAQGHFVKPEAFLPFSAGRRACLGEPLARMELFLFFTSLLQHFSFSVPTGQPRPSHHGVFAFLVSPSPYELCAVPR

SMILES: CN(C)C1CC(=O)N(C(C(=O)N2CCN(c3cccc(C(F)(F)F)c3)CC2)c2ccccc2)C1=O.Cl (stereo not shown) [Compound 14, 3-(Dimethylamino)-1-(2-oxo-1-phenyl-2-(4-(3-(trifluoromethyl)phenyl)-piperazin-1-yl)ethyl)pyrrolidine-2,5-dione hydrochloride]
- AUC0-∞ ([1]; brain, mice, 40 mg/kg i.p.): 413.17 µg⋅min/mL(g)
- Cmax ([1]; brain, mice, 40 mg/kg i.p.): 5.32 µg/mL(g)
- t0.5λz ([1]; brain, mice, 40 mg/kg i.p.): 66.14 min
- Kp ([1]; male, CD-1, mouse, brain and serum, ip, mice, 40 mg/kg i.p., read-out: brain-to-serum AUC ratio): ≤ 0.3
- concentration at 30 min ([1]; male, CD-1, mouse, brain, ip, 40 mg/kg, mice i.p., calculated for the free base, read-out: C30 min. in the brain): 7.2 µM
- Cmax ([1]; male, CD-1, mouse, brain, ip, 40 mg/kg, mice i.p., calculated for the free base, read-out: Cmax in the brain): 10.9 µM
- concentration at 30 min ([1]; male, CD-1, mouse, brain, ip, mice, 40 mg/kg i.p., read-out: brain level 30 min post-dose): 3500 ± 990 ng/g
- MRT [1, 2]: 89.2 min
- Tmax [1, 2]: 15 min
- k el [1, 2]: 0.000183 s⁻¹
- CL/F [1, 3]: 27 mL/min/kg
- MRT [1, 3]: 93.5 min
- Tmax [1, 3]: 5 min
- k el [1, 3]: 0.000183 s⁻¹
- concentration at 30 min ([1]; male, CD-1, mouse, serum, ip, 40 mg/kg, mice i.p., calculated for the free base, read-out: C30 min. in serum): 24.3 µM
- Cmax ([1]; male, CD-1, mouse, serum, ip, 40 mg/kg, mice i.p., calculated for the free base, read-out: Cmax in serum): 41.1 µM
- brain concentration 15 min after administration (highest) ([1]; mice, 40 mg/kg i.p.): 5.32 ± 0.54 µg/g tissue
- AUC0-∞ ([1]; serum, mice, 40 mg/kg i.p.): 1451.22 µg⋅min/mL(g)
- Cmax ([1]; serum, mice, 40 mg/kg i.p.): 20.06 µg/mL(g)
- V/F ([1]; serum, mice, 40 mg/kg i.p.): 2.57 L/kg
- t0.5λz ([1]; serum, mice, 40 mg/kg i.p.): 64.65 min
- effect on CYP2D6 activity (CYP2D6): significant activation
